# Data reported in a melting point compilation (Tetko et al.; mined from patent text by program, amines drawn as free bases though some values may be those of a salt).
row,Structure (SMILES),melting point [°C]
1,Nc1nc(N2CCOCC2)nc2ccccc12,216 to 219
2,CCCCC(CC)C(=O)Nc1ccc2ccn(Cc3ccc(C(=O)OC)cc3)c2c1 (stereo not given),139 to 141
3,O=C1c2ccccc2C(=O)C1c1ccncn1,168 to 169
4,CNC(=O)CC1CSc2c(C(=O)OC(C)C)c(C)cn21 (stereo not given),108 to 109
5,CCCN(CCC)c1ccc2nc3c4ccccc4c(=Nc4ccncc4)cc-3oc2c1,215 to 216
6,COc1ccc(-c2nc3cccc(C(=O)NC4CN5CCC4CC5)c3o2)cc1 (stereo not given),166 to 167
7,COc1cc(C(=O)N2CCN(C(=O)OC(C)(C)C)C(C(=O)O)C2)cc(OC)c1OC (stereo not given),188 to 190
8,O=C(Cl)c1csc(=O)[nH]1,184
9,Cc1cc(NC(=O)OC(C)(C)C)c(N)cc1-c1ccc(F)cc1,112
10,CCC1=CN2CC(c3ccc(Br)cc3)N=C2S1 (stereo not given),74.8
11,Cc1nc2sc(C)c(C)n2c(=O)c1CCN1CCC(C(=O)c2ccc(F)cc2)CC1,159
12,CC(=O)OC1CSC(Oc2cnccc2-c2ccc(C(F)(F)F)cc2)C(OC(C)=O)C1OC(C)=O (stereo not given),168
13,CC(C)COC(=O)Nc1cc(F)cc(F)c1,71 to 74
14,CC(C)CC(CS)C(=O)NCC(=O)NC(CCCNC(=N)N)C(=O)O (stereo not given),132 to 146
15,Fc1cc(F)c2c(Nc3c(Cl)ccc4c3OCO4)ncnc2c1,234 to 237
16,CCOC(=O)C1=C(C)N(C)C(C)=C(C(=O)OCC)C1c1ccc(OC(C)(C)C(=O)OCC)cc1,88
17,COc1ccc(C(=O)Nc2ccccc2)cc1NCc1ccc(F)c(F)c1,150 to 152
18,CC(=O)Nc1nc(CN2CCC(c3c[nH]c4ccccc34)CC2)cs1,204 to 207
19,NS(=O)(=O)c1nc2cc(O)ccc2s1,224
20,CCOC(=O)CN1CC2CCC(=O)N2C1=O (stereo not given),99 to 101
21,CC(O)Cc1cnn(-c2c(Cl)cc(C(F)(F)F)cc2Cl)n1 (stereo not given),68 to 69
22,Cn1cc(C(F)(F)F)nc1-c1ccc(OCC(O)CNCCOc2ccc(O)c(C(N)=O)c2)cc1 (stereo not given),195 to 197
23,BrCC(Br)c1ccc(-c2ccccc2)cc1 (stereo not given),79 to 81
24,COc1ccc(NC(=O)c2ccc(F)c(F)c2)cc1NS(=O)(=O)c1ccc(C#N)cc1,255 to 257
25,Cc1oc(-c2ccccc2)nc1CNCc1ccc(C[C@@H](C(=O)O)n2cccc2)cc1,163 to 165

row,Structure (SMILES),melting point [°C]
1,NS(=O)(=O)c1cc2ccc(OCC3CO3)cc2s1 (stereo not given),148 to 149
2,CC(=O)Nc1ccc2nc(CN3[C@H](C)CCC[C@@H]3C)ccc2c1,120 to 122
3,O=C(N[C@H]1CC[C@H](CCN2CCN(c3nccc4ccoc34)CC2)CC1)C1CCOCC1,211
4,CS(=O)(=O)OCc1cc(-c2ccc(OCc3ccccc3)cc2)no1,110 to 112
5,Cc1nccn1-c1nc(-c2ccc(Cl)cc2)c(CCCO)o1,128 to 129
6,O=C(O)C(Cl)C(=O)CCl (stereo not given),53 to 54
7,CC(C)(C)OC(=O)NCCc1ccc(OCCC2Oc3ccccc3N(Cc3ccccc3Cl)C2=O)cc1 (stereo not given),108 to 111
8,COc1ccc2c(=O)c3ccc(O)c(OC)c3oc2c1,120 to 121
9,CCOc1ccc(S(=O)(=O)N(CC(=O)NN=C2C(=O)Nc3ccccc32)c2ccc(C)cc2)cc1,130 to 131
10,COC(=O)c1c(C(=O)OC)c(C(C)C)n(CCC2CC(O)CC(=O)O2)c1-c1ccc(F)cc1 (stereo not given),167 to 170
11,CCOC(=O)c1c(-c2ccc(Cl)s2)ccnc1C(C(=O)OCC)c1cc(OC)cc(OC)n1 (stereo not given),127 to 132
12,CSc1ccc(-c2c(NN)nc(Cl)nc2-c2ccccc2)cc1,272 to 274
13,CCOCc1nc2c(N)nc(C)c(C)c2n1NCc1cccnc1,147 to 149
14,N#Cc1ccccc1OCCc1c[nH]cn1,170 to 171
15,O=C(Nc1ccc(OC(F)(F)F)cc1)c1cccc(Cl)c1[N+](=O)[O-],171 to 172
16,CC(C)n1c2c(c(-c3ccccc3)nc1=O)CCCCCCCCCC2,173 to 176
17,COc1ccc(-c2coc(C(=O)NNC(=O)c3ccc(O)c(C#N)c3)c2-c2ccccc2)cc1,146 to 148
18,N#CCCCCn1cnc(NC(N)=NCC(F)(F)F)n1,200 to 201
19,CCOC(=O)c1cc(OC)ccc1Nc1ccc(O)cc1,134 to 136
20,CN(Cc1ccccc1)Cc1ccc(N)cc1,48 to 50
21,O=C(O)c1cc(=O)cc(-c2ccccc2O)o1,213 to 215
22,COc1c(Nc2ncc(Cl)c(Nc3ccccc3S(=O)(=O)N(C)C)n2)ccc2c1CC(N1CCOCC1)CCC2 (stereo not given),92 to 104
23,O=S(=O)(Cl)c1ccc(Oc2ccc(F)cc2)cc1,76
24,O=C(O)c1ccc(N2CCCC2)c(NC(=O)C(CS)Cc2ccccc2)c1 (stereo not given),229 to 234
25,Cc1ccccc1N1CCc2c(C)nc3c(C)cccc3c21,126 to 128

# Other lines, results leading:
row,melting point [°C],Structure (SMILES)
1,75 to 77,CCCN(Cc1ccccc1)c1cccc(-c2nc(NC)nc3cc(OC)c(OC)cc23)c1
2,61 to 63,COC(=O)c1cc(N(C)C)c(N(C)C)c(N(C)C)c1
3,65 to 66,COC(=O)c1cc([N+](=O)[O-])nn1C
4,228 to 230,CC(C)(C)c1cc(C(=O)c2ccc(C(=O)O)s2)cc(C(C)(C)C)c1O
5,201,COc1nc2ncnn2c(N2CCC(C)CC2)c1-c1ccc(C)cc1F
6,205 to 207,Nc1sc(-c2cccc(F)c2)c(CN(C2CCCCC2)C2CCCCC2)c1C(=O)c1ccc(Cl)cc1
7,276 to 278,O=c1[nH]c2ncc(-c3ccc(-n4ccnn4)cc3)nc2n1CC1CCCCC1
8,82 to 83,Cc1cc(O)c2c(c1)CCC2
9,231 to 233,CCNC(=O)C1CCN(c2cc(-c3ccc(Cl)cc3)nc3ccccc23)CC1
10,> 300,O=C(O)Cn1c(=O)c(=O)[nH]c2ccccc21
11,228 to 229,CCCC(=O)NC1Cc2ccc(-c3ccc(=O)[nH]n3)cc2C1 (stereo not given)
12,169 to 171,CC(=O)N1c2ccccc2-n2cnc(-c3nc(C4CC4)no3)c2C1(C)C
13,130,Cc1ccc(C(=O)OCC2OC(n3cc(C#C[Si](C)(C)C)c(=O)[nH]c3=O)CC2F)cc1 (stereo not given)
14,92 to 98,OCC1OC(n2cnc3c(NCC4(c5cccc(Cl)c5)CCC4)ncnc32)C(O)C1O (stereo not given)
15,145 to 148,COc1cccc2oc(Cn3nc(-c4ccc(OC(C)C)c(F)c4)c4c(N)ncnc43)c(-c3cccc(F)c3)c(=O)c12
16,134 to 136,NC(=O)CNC(=O)c1ccc(-c2cccc3cc(Cc4cccc(C(F)(F)F)c4)sc23)cc1
17,250 to 252,O=C1NC(=O)C(Cc2ccc(OC3=C(Cl)C(=O)c4ccccc4C3=O)cc2)S1 (stereo not given)
18,225,COc1ccc(C=CC(=O)c2ccc(O)c(CC(=O)O)c2)cc1OC
19,136 to 138,CC(=O)OCc1cc(N)ccc1N1C(=O)c2ccc(Cl)cc2C1=O
20,205,OC1CSC(Oc2cncc(-c3cccs3)c2)C(O)C1O (stereo not given)
21,178,O=c1ccc(-c2ccc(OC(F)(F)F)cc2)n[nH]1
22,121 to 124,CCC/C(=C\C#N)c1ccc2c(c1)C(CC)(CC)OC(=O)N2
23,75 to 78,Oc1ccc(C(O)(c2ccccc2)C(CCCCl)c2ccccc2)cc1 (stereo not given)
24,218 to 219,CC(C)(C)c1ccc(COc2cc3c(cc2C(=O)c2ccc(C(=O)O)cc2)C(C)(C)CCC3(C)C)cc1
25,84 to 86,Clc1cc(Br)c2ccccc2c1Cl

row,melting point [°C],Structure (SMILES)
1,129 to 130,N#Cc1cccc(Oc2c(-c3ccccc3)cccc2-c2ccccc2)c1C#N
2,144 to 146,CCn1nc(OCC(=O)C(C)(C)C)c(-c2ccc(F)cc2)c1-c1ccc(S(C)(=O)=O)cc1
3,275 to 279,CNn1cc(C(=O)O)c(=O)c2cc(F)c(Cl)cc21
4,115,COCCOc1cc(N(C)S(=O)(=O)c2ccccn2)c2[nH]c(C3=NCC(CN4CCS(=O)(=O)CC4)S3)cc2c1 (stereo not given)
5,88 to 91,CN(Cc1cccs1)C(=O)C12CC3CC(CC(O)(C3)C1)C2
6,75 to 80,Cc1ccc(Cc2c[nH]c(NCCCC3CCCc4cccnc43)nc2=O)cn1 (stereo not given)
7,148 to 150,CCOC(=O)Cc1csc(Nc2ccc(Cl)c(C(F)(F)F)c2)n1
8,217 to 220,Cn1nnnc1-c1cn(C)c2cc(S(=O)c3ccccc3)ccc2c1=O (stereo not given)
9,84.5 to 86,NS(=O)(=O)OCCOc1ccccc1Cl
10,103,CNCC(=O)NC(=O)OC(C)(C)C
11,55 to 57,CC1OC(C)C(C(=O)O)C1=O (stereo not given)
12,284 to 286,O=c1[nH]c2cc(Cl)ccc2c(=O)n1S(=O)(=O)c1cccc2cccnc12
13,196 to 197,CC(=O)NC(=Cc1cccs1)C1=NC(=Cc2ccc([N+](=O)[O-])cc2)C(=O)O1
14,74 to 76,COc1cccc2c1CCN(C(=O)C(F)(F)F)CC2
15,126 to 127,COCCCNC(=O)NC(=O)C(C#N)=NO
16,217,CCn1nc(C2CC2)c(C(=O)O)c1Cc1ccc(-c2ccccc2S(=O)(=O)NC(=O)c2ccccc2)cc1
17,213,Cc1cc(C)cc(-c2nc3ccc(O)cc3n2Cc2ccccc2CBr)c1
18,198 to 200,Cc1ccc(S(=O)(=O)Oc2c(-c3ccc(S(C)(=O)=O)cc3)cnn(-c3cccc(Cl)c3)c2=O)cc1
19,20,CC(C)(C)C(=O)Cn1ccnc1
20,212 to 214,O=[N+]([O-])c1ccc2c(C3CCN(C[C@H](O)COc4cccc5[nH]ccc45)CC3)c[nH]c2c1
21,56 to 60,CC1C[C@@H]2[C@H](O1)[C@@H](NC(=O)OC(C)(C)C)CN2Cc1ccccc1 (relative stereo)
22,105 to 106,CC(C)NC(=O)n1nc(Oc2c(Cl)cc(C(F)(F)F)cc2Cl)cc1C(Cl)(Cl)Cl
23,139 to 141,O=C(NC1CCN(CC(O)COc2cccc3ccccc23)CC1)c1ccccc1 (stereo not given)
24,212 to 214,COc1ccc(-c2cc3nccnc3[nH]2)cc1OC
25,260 to 261,O=C1NC(=O)C(=Cc2ccc3c(c2)CN(c2ccccn2)CCO3)S1
